Among the test systems are BT-549; SK-MEL-28; NCI-H226; NCI/ADR-RES; M14; OVCAR-8; NCI-H460; RPMI-8226; UACC-62; HCT-15; K562; OVCAR-3; SK-OV-3; SK-MEL-2; UACC-257; ACHN; IGROV-1; EKVX; SNB-19; HCT-116.
What all share (assay): NCI anticancer screen, dose series, 48 h

10 molecules from ChEMBL document CHEMBL1201862, “PubChem BioAssay data set” (2004) can be followed below.

Structures are written as SMILES.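 A five-concentration, 48-hour dose response in 96-well plates underlies each endpoint, interpolated linearly between surrounding concentrations. GI50 is the concentration that inhibits growth by half.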 Active and inactive are the calls of the source. Rule as the data show it: active = GI50 up to about 1.1 µM and inactive = higher.

Consider `CNC1Cc2c[nH]c3cccc(c23)C12C=C(C)C(=O)O2` (configuration not stated), for which the GI50 in the assay with BT-549, in the assay with SK-MEL-28, with NCI-H226, in the assay on NCI/ADR-RES, in the assay with M14 and in the assay with OVCAR-8 was > 100 µM (inactive) in each case. The GI50 in the assay on NCI-H460 was > 100 µM (inactive); in the assay on RPMI-8226, > 100 µM (inactive); with UACC-62, > 100 µM (inactive); in the assay with HCT-15, greater than 100 µM; in the assay with K562 it was > 100 µM (inactive); in the assay on OVCAR-3, > 100 µM (inactive). Besides, the GI50 in the assay on SK-OV-3, in the assay with SK-MEL-2, in the assay with UACC-257, in the assay on ACHN, in the assay on IGROV-1 and in the assay on EKVX was > 100 µM (inactive) each time. The GI50 in the assay with SNB-19 and in the assay with HCT-116 was > 100 µM (inactive) each time.
As to `COc1ccc2nc3ccccc3c(NCCCCCCN(CCCl)CCCl)c2c1`, the GI50 in the assay on BT-549 is 0.323 µM (active); with SK-MEL-28 it was 1.06 µM (active); in the assay on NCI-H226 it was 0.25 µM (active); in the assay with NCI/ADR-RES, 0.0883 µM (active); with M14, 0.0946 µM (active); in the assay on OVCAR-8 it was 0.0627 µM (active). Further, the GI50 with NCI-H460 is 0.0346 µM (active); in the assay with RPMI-8226, 0.0122 µM (active); in the assay on UACC-62, 0.0628 µM (active); in the assay on HCT-15, 0.0577 µM; with K562, 0.019 µM (active); in the assay on OVCAR-3, 0.0627 µM (active). Besides, the GI50 in the assay with SK-OV-3 is 0.226 µM (active); with SK-MEL-2 it was 0.297 µM (active); in the assay on UACC-257 it was 1.6 µM (inactive); with ACHN, 0.0184 µM (active); with IGROV-1, 0.148 µM (active); with EKVX, 0.895 µM (active). Further, the GI50 in the assay on SNB-19 is 0.328 µM (active); with HCT-116, 0.0299 µM (active).
As to `C=CCCON(C(=O)OC(C)(C)C)C(C)(C)C`, the GI50 in the assay with BT-549, in the assay on SK-MEL-28, with NCI-H226, in the assay with NCI/ADR-RES, with M14 and in the assay on OVCAR-8 was > 100 µM (inactive) each time. Moreover, the GI50 in the assay on NCI-H460 was > 100 µM (inactive); in the assay on RPMI-8226 it was > 100 µM (inactive); with UACC-62 it was > 100 µM (inactive); with HCT-15, greater than 100 µM; in the assay on K562, > 100 µM (inactive); in the assay with OVCAR-3, > 100 µM (inactive). In addition, the GI50 with SK-OV-3, in the assay with SK-MEL-2, in the assay with UACC-257, in the assay on ACHN, with IGROV-1 and in the assay with EKVX was > 100 µM (inactive) in each case. Moreover, the GI50 with SNB-19 and in the assay with HCT-116 was > 100 µM (inactive) throughout.
For the molecule `CCC1(CC)C(=O)N(C(=O)c2ccc(C)cc2)N(C(=O)c2ccc(C)cc2)C1=O`, the GI50 in the assay on BT-549 was > 75 µM (inactive); in the assay with SK-MEL-28 it was > 75 µM (inactive); in the assay with NCI-H226, > 75 µM (inactive); in the assay with NCI/ADR-RES, 34.2 µM (inactive); in the assay with M14 it was > 75 µM (inactive); with OVCAR-8 it was > 75 µM (inactive). Besides, the GI50 in the assay on NCI-H460 is 18.3 µM (inactive); in the assay on RPMI-8226 it was 35.4 µM (inactive); in the assay with UACC-62 it was > 75 µM (inactive); with HCT-15 it was 32 µM; with K562, 40 µM (inactive); in the assay with OVCAR-3, 17.7 µM (inactive). Besides, the GI50 in the assay on SK-OV-3 was > 75 µM (inactive); in the assay with SK-MEL-2, > 75 µM (inactive); with UACC-257, > 75 µM (inactive); with ACHN it was 26.8 µM (inactive); with IGROV-1 it was 48.9 µM (inactive); in the assay on EKVX, 48.6 µM (inactive). Further, the values for the GI50 with SNB-19 and in the assay on HCT-116 were > 75 µM (inactive) and 32.2 µM (inactive), respectively.
As to `COc1c(O)ccc2c1CN1CCc3cc4c(cc3C1C2)OCO4` (configuration not stated), the GI50 with BT-549 is 28.2 µM (inactive); with SK-MEL-28, 45.1 µM (inactive); with NCI-H226, 44.5 µM (inactive); in the assay with NCI/ADR-RES it was 20.9 µM (inactive); in the assay with M14, 34.8 µM (inactive); in the assay with OVCAR-8 it was 33.9 µM (inactive). The GI50 with NCI-H460 was 18.4 µM (inactive); in the assay on RPMI-8226, 32.4 µM (inactive); in the assay with UACC-62 it was 27.5 µM (inactive); in the assay on HCT-15 it was 21.6 µM; with K562 it was 20 µM (inactive); in the assay with OVCAR-3 it was 26.4 µM (inactive). Besides, the GI50 was 23.1 µM (inactive) with SK-OV-3; 30.6 µM (inactive) in the assay with SK-MEL-2; 31 µM (inactive) in the assay with UACC-257; 16.3 µM (inactive) in the assay with ACHN; 28.6 µM (inactive) in the assay with IGROV-1; 47.8 µM (inactive) with EKVX. Besides, the GI50 is 31.3 µM (inactive) with SNB-19 and 24 µM (inactive) with HCT-116.
Consider `O=C(CN1CCCCC1)CC(O)(C(F)(F)F)C(F)(F)F`, for which the GI50 in the assay with BT-549, in the assay on SK-MEL-28, in the assay on NCI-H226, with NCI/ADR-RES, with M14 and in the assay with OVCAR-8 was > 100 µM (inactive) each time. Also, the GI50 in the assay on NCI-H460 is > 100 µM (inactive); with RPMI-8226 it was > 100 µM (inactive); in the assay with UACC-62 it was > 100 µM (inactive); with HCT-15, greater than 100 µM; with K562 it was > 100 µM (inactive); in the assay with OVCAR-3, > 100 µM (inactive). The GI50 in the assay with SK-OV-3, with SK-MEL-2, in the assay with UACC-257, in the assay on ACHN, in the assay with IGROV-1 and with EKVX was > 100 µM (inactive) in each case. The GI50 in the assay with SNB-19 and with HCT-116 was > 100 µM (inactive) in each case.
Consider `COc1cc(NS(C)(=O)=O)ccc1N1Cc2c[nH]c3ccc4nc(C)cc1c4c23`, for which the GI50 with BT-549 was > 100 µM (inactive); with SK-MEL-28 it was 35.5 µM (inactive); in the assay with NCI-H226 it was 38.8 µM (inactive); in the assay on NCI/ADR-RES, > 100 µM (inactive); with M14, > 100 µM (inactive); in the assay on OVCAR-8 it was 33 µM (inactive). The GI50 in the assay with NCI-H460 is 86.1 µM (inactive); in the assay on RPMI-8226, 31.5 µM (inactive); in the assay with UACC-62, 72.3 µM (inactive); in the assay with HCT-15 it was greater than 100 µM; in the assay on K562, 26.5 µM (inactive); in the assay on OVCAR-3, 31 µM (inactive). For the same molecule, the GI50 in the assay on SK-OV-3 is 41.6 µM (inactive); in the assay with SK-MEL-2, 74 µM (inactive); in the assay on UACC-257 it was > 100 µM (inactive); in the assay with ACHN it was > 100 µM (inactive); with IGROV-1 it was 33.3 µM (inactive); in the assay on EKVX, 67.5 µM (inactive). For the same molecule, the GI50 in the assay with SNB-19 is 18.7 µM (inactive); with HCT-116, 62.8 µM (inactive).
Regarding `Cc1cc(-c2ccc(C(=O)C(c3ccccc3)(c3ccccc3)c3ccccc3)[nH]2)on1`, the GI50 in the assay with BT-549 is 18.7 µM (inactive); with SK-MEL-28, 17.6 µM (inactive); in the assay on NCI-H226, 16.9 µM (inactive); in the assay on NCI/ADR-RES, 15.8 µM (inactive); in the assay on M14 it was 22.8 µM (inactive); with OVCAR-8 it was 17.5 µM (inactive). The GI50 is 7.21 µM (inactive) with NCI-H460; 14.4 µM (inactive) with RPMI-8226; 16.1 µM (inactive) in the assay with UACC-62; 17.5 µM with HCT-15; 32 µM (inactive) in the assay with K562; 22.1 µM (inactive) in the assay with OVCAR-3. For the same molecule, the GI50 with SK-OV-3 is 32.1 µM (inactive); in the assay on SK-MEL-2 it was 14.6 µM (inactive); in the assay on UACC-257 it was 32 µM (inactive); in the assay with IGROV-1, 16.9 µM (inactive); with EKVX, 13.2 µM (inactive); with SNB-19 it was 19 µM (inactive). The GI50 with HCT-116 is 12.5 µM (inactive).
On to `O=c1[nH]c2nccnc2c2c([N+](=O)[O-])cccc12`, for which the GI50 with BT-549 is 65.2 µM (inactive); in the assay with SK-MEL-28, > 100 µM (inactive); with NCI-H226 it was 95.5 µM (inactive); in the assay with NCI/ADR-RES, > 100 µM (inactive); in the assay with M14 it was > 100 µM (inactive); in the assay with OVCAR-8, > 100 µM (inactive). Further, the GI50 with NCI-H460 was > 100 µM (inactive); in the assay on RPMI-8226, > 100 µM (inactive); in the assay on UACC-62, > 100 µM (inactive); with HCT-15, greater than 100 µM; in the assay with K562, > 100 µM (inactive); in the assay on OVCAR-3, > 100 µM (inactive). The GI50 with SK-OV-3, in the assay on SK-MEL-2, with ACHN, with IGROV-1, in the assay on EKVX and in the assay with SNB-19 was > 100 µM (inactive) in each case. Moreover, the GI50 with HCT-116 was > 100 µM (inactive).
In the case of `Nc1nc(S)c2c(N)n[nH]c2c1C(=O)Nc1ccccc1`, the GI50 in the assay with BT-549, in the assay on SK-MEL-28, with NCI-H226, in the assay on NCI/ADR-RES, in the assay with M14 and in the assay with OVCAR-8 was > 100 µM (inactive) each time. For the same molecule, the GI50 in the assay on NCI-H460 is > 100 µM (inactive); in the assay on RPMI-8226, > 100 µM (inactive); in the assay on UACC-62, > 100 µM (inactive); in the assay with HCT-15, greater than 100 µM; in the assay on K562, > 100 µM (inactive); in the assay on OVCAR-3 it was > 100 µM (inactive). In addition, the GI50 in the assay with SK-OV-3 was > 100 µM (inactive); in the assay on SK-MEL-2 it was > 100 µM (inactive); in the assay with UACC-257, > 100 µM (inactive); with IGROV-1, > 100 µM (inactive); with EKVX, 26.5 µM (inactive); in the assay with SNB-19, > 100 µM (inactive). Also, in the assay with HCT-116, the GI50 is > 100 µM (inactive).
